This note sets out measurements from ChEMBL document CHEMBL5653631, “A Potent and Selective ULK1 Inhibitor Suppresses Autophagy and Sensitizes Cancer Cells to Nutrient Stress” (iScience, 2018).

Assay [1] concerns the target T1, Serine/threonine-protein kinase tousled-like 1 (Homo sapiens) (UniProt Q9UKI8).
T1 sequence (whole entry): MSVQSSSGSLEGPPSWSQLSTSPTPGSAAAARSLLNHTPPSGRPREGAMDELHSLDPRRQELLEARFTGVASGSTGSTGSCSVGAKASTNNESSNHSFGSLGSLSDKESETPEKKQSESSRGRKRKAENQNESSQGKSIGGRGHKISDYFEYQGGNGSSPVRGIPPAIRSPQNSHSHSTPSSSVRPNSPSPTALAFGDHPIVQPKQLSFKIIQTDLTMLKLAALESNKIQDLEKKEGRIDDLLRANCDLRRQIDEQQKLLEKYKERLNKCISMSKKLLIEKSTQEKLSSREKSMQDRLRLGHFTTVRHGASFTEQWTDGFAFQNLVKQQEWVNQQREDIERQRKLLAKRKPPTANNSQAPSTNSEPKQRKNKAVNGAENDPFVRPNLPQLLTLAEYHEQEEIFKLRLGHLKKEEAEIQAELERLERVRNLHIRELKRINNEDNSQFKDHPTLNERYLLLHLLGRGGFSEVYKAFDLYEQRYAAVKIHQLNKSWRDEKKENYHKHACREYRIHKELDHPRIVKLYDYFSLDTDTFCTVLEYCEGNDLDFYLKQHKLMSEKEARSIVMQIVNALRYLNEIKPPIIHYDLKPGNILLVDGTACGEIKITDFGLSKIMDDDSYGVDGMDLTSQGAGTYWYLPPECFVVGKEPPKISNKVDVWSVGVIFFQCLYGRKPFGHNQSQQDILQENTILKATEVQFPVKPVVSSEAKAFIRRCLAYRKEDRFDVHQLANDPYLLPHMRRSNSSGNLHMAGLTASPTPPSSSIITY
Briefly: Inhibition of human recombinant TLK1 at 40 nM in presence of ATP by radiometric assay relative to control.

Assay [2] has as its target T2, cGMP-dependent protein kinase 2 (Homo sapiens) (UniProt Q13237).
T2 sequence (whole entry): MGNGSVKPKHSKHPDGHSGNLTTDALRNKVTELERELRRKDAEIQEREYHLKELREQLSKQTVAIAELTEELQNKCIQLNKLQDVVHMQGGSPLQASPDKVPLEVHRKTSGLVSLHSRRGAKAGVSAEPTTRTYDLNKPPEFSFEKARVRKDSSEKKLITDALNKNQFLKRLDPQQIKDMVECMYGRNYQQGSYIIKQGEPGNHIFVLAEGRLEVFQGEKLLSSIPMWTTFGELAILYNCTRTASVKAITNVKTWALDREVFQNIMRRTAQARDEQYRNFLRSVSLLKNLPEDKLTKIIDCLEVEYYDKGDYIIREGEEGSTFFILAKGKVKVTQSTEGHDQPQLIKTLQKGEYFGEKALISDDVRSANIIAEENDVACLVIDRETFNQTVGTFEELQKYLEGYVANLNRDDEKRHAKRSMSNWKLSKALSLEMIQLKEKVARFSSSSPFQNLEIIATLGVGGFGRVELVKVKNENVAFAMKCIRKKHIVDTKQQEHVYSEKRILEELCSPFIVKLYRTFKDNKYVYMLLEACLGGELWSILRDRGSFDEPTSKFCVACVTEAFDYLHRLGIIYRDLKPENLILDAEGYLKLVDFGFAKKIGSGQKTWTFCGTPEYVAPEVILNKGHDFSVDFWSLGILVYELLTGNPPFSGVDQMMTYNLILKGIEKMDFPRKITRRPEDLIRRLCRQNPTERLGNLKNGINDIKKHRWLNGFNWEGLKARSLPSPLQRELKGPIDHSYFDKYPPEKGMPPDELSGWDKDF
Kind of assay: Inhibition of human recombinant PKG2 at 40 nM related to control ULK1.

Assay [3] has as its target Serine/threonine-protein kinase 32A (Homo sapiens) (UniProt Q8WU08). Kind of assay: Inhibition of human recombinant YANK1 at 500 nM in presence of ATP by radiometric assay relative to control.
For assay [4], the target named is Cyclin-dependent kinase 6 (Homo sapiens) (UniProt Q00534). Kind of assay: Inhibition of human recombinant CDK6 at 500 nM related to control ULK1.
Chain of Cyclin-dependent kinase 6 (Homo sapiens) (Q00534 whole entry): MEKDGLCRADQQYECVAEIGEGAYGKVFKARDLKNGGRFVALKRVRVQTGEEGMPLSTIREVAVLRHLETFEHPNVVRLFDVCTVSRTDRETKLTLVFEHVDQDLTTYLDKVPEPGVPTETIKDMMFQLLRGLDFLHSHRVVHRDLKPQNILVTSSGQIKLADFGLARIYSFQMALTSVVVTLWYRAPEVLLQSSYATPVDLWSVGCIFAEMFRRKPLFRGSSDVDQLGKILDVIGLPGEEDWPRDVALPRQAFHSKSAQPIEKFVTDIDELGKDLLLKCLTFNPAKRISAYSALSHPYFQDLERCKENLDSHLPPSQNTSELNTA
For the next assay, the species on record is Homo sapiens. Kind of assay: Inhibition of human recombinant p70S6K at 500 nM related to control ULK1.
Assay [5] deals with Serine/threonine-protein kinase MRCK alpha (Homo sapiens) (UniProt Q5VT25). Kind of assay: Inhibition of human recombinant MRCKa at 15 nM in presence of ATP by radiometric assay relative to control.
Chain of Serine/threonine-protein kinase MRCK alpha (Homo sapiens) (Q5VT25 whole entry): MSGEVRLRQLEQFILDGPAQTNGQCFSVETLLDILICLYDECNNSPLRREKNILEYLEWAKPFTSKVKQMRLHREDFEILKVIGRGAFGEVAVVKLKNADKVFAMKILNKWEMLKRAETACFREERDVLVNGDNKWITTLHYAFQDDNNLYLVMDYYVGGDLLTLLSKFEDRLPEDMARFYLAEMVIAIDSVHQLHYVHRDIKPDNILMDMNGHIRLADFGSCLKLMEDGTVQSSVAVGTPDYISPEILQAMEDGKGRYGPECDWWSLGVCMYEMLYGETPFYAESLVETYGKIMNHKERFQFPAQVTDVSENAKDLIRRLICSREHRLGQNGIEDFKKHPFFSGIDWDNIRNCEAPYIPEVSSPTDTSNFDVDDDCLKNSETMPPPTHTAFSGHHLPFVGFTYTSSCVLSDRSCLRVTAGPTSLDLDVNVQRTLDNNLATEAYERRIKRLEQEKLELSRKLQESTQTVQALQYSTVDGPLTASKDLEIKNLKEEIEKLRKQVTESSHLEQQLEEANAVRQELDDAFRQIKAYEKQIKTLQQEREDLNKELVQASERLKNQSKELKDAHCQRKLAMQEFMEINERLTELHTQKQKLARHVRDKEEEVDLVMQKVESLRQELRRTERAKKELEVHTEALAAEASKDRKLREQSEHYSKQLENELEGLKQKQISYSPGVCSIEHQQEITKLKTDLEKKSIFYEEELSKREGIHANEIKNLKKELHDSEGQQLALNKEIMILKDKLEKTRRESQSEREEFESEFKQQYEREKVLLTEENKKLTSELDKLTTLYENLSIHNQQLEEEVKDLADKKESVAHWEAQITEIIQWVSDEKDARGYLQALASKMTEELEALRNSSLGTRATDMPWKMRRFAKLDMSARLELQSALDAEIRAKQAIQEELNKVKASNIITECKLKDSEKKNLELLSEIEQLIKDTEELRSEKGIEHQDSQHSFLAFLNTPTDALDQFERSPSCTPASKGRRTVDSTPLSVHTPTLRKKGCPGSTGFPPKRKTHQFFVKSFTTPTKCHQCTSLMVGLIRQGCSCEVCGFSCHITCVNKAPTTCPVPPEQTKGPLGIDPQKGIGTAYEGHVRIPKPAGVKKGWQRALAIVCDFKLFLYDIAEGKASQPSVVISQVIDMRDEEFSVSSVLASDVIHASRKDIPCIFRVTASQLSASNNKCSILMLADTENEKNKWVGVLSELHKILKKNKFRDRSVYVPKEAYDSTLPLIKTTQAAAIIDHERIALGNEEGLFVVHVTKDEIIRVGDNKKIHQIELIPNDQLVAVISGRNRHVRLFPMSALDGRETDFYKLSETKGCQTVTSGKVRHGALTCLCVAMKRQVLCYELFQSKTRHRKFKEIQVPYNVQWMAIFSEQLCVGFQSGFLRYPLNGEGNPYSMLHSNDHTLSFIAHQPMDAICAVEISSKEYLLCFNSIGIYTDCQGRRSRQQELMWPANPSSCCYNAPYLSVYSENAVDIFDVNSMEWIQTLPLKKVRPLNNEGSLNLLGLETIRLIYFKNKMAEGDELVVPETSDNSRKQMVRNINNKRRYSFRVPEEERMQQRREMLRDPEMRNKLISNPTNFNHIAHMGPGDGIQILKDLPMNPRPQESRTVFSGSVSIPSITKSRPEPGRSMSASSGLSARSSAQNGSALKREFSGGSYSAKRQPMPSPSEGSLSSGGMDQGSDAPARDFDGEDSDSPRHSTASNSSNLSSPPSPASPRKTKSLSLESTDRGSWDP
Assay [6] addresses T3, Ephrin type-A receptor 1 (Homo sapiens) (UniProt P21709).
T3 sequence (whole entry): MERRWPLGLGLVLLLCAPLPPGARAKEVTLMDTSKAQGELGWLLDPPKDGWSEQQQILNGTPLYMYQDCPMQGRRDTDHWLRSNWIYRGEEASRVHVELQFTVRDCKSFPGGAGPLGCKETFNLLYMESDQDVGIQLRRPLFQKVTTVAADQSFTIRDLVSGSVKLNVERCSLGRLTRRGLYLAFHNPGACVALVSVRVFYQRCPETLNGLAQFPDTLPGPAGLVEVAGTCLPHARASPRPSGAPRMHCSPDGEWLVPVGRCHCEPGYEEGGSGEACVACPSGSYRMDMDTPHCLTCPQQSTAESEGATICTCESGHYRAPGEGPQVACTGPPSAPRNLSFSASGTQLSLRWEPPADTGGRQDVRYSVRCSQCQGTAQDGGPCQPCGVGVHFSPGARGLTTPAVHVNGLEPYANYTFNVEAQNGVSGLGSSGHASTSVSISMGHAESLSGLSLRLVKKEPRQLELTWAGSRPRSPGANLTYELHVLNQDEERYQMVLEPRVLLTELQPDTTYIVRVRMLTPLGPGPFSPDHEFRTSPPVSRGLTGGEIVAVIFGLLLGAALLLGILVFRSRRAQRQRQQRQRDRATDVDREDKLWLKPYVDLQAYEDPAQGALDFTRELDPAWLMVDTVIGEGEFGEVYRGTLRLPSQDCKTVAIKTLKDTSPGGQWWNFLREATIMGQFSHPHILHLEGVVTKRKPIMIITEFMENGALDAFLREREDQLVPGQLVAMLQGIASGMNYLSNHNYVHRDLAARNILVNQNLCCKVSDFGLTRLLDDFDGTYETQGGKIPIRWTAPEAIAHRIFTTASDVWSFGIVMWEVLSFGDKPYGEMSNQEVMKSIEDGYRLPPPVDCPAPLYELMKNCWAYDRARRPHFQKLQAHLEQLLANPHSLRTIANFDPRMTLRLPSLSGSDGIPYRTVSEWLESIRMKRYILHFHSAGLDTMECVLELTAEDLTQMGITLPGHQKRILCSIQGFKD
Briefly: Inhibition of human recombinant EphA1 at 15 nM related to control ULK1.

Assay [7] addresses Focal adhesion kinase 1 (Homo sapiens) (UniProt Q05397). Briefly: Inhibition of human recombinant FAK at 15 nM related to control ULK1.
Assay [8] addresses TRAF2 and NCK-interacting protein kinase (Homo sapiens) (UniProt Q9UKE5). Kind of assay: Inhibition of human recombinant TNIK at 15 nM related to control ULK1.

Chain of TRAF2 and NCK-interacting protein kinase (Homo sapiens) (Q9UKE5 whole entry, looked up): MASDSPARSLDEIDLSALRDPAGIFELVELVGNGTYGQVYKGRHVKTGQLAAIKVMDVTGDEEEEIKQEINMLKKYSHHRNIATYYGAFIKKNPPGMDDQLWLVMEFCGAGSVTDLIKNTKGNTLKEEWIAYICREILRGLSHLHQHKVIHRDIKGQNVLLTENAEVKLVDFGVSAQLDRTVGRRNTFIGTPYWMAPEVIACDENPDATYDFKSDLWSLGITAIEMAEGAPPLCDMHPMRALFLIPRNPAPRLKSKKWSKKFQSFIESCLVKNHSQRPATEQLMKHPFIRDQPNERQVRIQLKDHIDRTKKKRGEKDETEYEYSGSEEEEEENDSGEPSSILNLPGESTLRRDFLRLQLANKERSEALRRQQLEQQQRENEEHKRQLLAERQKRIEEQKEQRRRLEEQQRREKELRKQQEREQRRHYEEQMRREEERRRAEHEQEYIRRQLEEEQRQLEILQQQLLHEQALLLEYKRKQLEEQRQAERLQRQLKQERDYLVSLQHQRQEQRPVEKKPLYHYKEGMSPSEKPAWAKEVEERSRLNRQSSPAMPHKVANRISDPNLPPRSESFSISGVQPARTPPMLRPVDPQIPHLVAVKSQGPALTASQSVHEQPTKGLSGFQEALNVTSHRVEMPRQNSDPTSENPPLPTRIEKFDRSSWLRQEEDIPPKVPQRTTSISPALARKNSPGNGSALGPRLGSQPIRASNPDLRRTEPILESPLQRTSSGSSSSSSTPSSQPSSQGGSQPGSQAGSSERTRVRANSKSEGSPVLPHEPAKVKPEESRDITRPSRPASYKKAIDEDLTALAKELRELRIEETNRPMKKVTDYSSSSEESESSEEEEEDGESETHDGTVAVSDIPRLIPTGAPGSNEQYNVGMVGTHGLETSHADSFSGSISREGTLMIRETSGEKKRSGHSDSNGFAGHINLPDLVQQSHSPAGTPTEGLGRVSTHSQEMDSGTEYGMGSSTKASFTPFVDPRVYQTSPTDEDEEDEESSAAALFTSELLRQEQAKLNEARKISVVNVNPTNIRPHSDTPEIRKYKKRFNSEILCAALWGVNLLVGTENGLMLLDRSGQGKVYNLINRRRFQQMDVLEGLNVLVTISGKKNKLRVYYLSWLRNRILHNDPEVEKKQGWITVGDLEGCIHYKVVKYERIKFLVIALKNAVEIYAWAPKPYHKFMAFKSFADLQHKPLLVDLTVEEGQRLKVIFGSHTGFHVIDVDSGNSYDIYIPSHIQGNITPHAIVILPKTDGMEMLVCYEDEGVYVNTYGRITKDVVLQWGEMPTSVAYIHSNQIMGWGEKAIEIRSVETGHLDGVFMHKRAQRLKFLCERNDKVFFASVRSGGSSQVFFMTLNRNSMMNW
Chain of Serine/threonine-protein kinase 32A (Homo sapiens) (Q8WU08 whole entry): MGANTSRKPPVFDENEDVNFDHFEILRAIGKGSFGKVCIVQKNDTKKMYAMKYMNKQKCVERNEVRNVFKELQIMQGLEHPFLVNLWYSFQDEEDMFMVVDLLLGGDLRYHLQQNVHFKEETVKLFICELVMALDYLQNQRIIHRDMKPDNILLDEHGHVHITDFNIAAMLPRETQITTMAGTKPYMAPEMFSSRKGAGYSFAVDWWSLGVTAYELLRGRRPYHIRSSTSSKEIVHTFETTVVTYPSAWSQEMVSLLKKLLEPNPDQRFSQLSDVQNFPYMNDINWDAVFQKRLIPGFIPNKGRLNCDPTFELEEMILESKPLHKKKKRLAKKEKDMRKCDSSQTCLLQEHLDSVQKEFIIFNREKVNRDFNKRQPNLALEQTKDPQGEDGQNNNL
Chain of Focal adhesion kinase 1 (Homo sapiens) (Q05397 2-1052 limits assumed): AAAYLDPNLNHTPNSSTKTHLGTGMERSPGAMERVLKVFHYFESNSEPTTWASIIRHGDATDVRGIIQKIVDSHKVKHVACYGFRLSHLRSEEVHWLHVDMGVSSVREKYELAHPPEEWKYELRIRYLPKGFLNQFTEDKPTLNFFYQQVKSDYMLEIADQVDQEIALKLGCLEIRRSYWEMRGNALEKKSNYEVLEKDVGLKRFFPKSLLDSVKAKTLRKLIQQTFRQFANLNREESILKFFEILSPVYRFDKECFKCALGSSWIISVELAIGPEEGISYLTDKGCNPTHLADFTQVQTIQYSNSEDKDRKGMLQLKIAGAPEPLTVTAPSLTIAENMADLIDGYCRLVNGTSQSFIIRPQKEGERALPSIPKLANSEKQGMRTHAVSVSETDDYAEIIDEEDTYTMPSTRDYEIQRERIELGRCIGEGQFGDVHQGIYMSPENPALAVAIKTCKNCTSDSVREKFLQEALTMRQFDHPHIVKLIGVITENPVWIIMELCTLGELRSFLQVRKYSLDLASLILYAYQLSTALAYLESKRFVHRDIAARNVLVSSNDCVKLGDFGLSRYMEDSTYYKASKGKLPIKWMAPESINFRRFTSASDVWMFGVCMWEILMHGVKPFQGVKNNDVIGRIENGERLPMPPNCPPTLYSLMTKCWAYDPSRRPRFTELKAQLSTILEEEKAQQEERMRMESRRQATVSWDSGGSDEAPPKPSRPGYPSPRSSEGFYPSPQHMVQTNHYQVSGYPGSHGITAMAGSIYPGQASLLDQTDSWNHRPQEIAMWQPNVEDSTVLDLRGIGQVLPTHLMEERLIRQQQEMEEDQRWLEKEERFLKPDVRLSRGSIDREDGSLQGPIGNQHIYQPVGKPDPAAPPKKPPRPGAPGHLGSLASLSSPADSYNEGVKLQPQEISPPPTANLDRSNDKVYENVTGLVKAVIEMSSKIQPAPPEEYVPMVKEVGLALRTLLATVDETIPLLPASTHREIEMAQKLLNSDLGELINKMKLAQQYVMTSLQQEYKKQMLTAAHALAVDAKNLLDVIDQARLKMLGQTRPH

As a reminder, the inhibition is the relative decrease from the control value, in per cent. For the compound `O=C(N[C@@H](C1CC1)C(F)(F)F)c1cc(-c2cnn3cc(-c4ccc(F)cc4)cnc23)cs1`, the inhibition in assay [1] stood at 0%. Besides, the fold change (FC) in [2] worked out at 0.01.
Take `CNC(=O)c1ccccc1Oc1nc(Nc2cc(OC)c(OC)c(OC)c2)ncc1Br`: the inhibition in [3] was found to be 0%. The fold change (FC) (in assay [4]; in the assay listed under Homo sapiens) was 0 throughout.
As for `CC(C)[C@H](NC(=O)c1cc(-c2cnn3cc(-c4ccc(OCCN5CCCCC5)cc4)cnc23)cs1)C(F)(F)F`, in assay [5], the inhibition was 11%. Further, the fold change (FC) in assay [6] stood at 0; in assay [7] it was 0; in assay [8], 0.06.
